Source: ChEMBL document CHEMBL1127355, “(E)-3-[[[[6-(2-carboxyethenyl)-5-[[8-(4- methoxyphenyl)octyl]oxy]-2-pyridinyl]-methyl]thio]methyl]benzoic acid and related compounds: high affinity leukotriene B4 receptor antagonists” (J Med Chem, 1994)

Assays:
[1] = species: Homo sapiens; assay: Concentration of test compound required to inhibit 50% LTB4-induced degranulation of human PMNs; format: functional
[2] = target: Leukotriene B4 receptor 1 (Homo sapiens, UniProt Q15722); assay: Binding affinity at leukotriene B4 receptor on intact human PMNs by displacement of [3H]LTB4.
[3] = species: Homo sapiens; assay: Concentration of test compound required to inhibit 50% LTB4-induced calcium mobilization in intact human PMNs; format: functional
[4] = species: Mus musculus; assay: Effective concentration required per ear of mouse for inhibition of neutrophil infiltration; format: functional
[5] = species: Mus musculus; assay: Effective concentration required for inhibition of LTB4-induced (250 ng/mL) PMN infiltration; format: functional
[6] = species: Mus musculus; assay: Compound was tested for its effect on mouse ear for reduction of PMN infiltration; format: functional
[7] = system: Mus musculus; assay: Effective concentration required per ear of mouse for inhibition of edematous response; format: functional

Leukotriene B4 receptor 1, sequence (Q15722 whole entry): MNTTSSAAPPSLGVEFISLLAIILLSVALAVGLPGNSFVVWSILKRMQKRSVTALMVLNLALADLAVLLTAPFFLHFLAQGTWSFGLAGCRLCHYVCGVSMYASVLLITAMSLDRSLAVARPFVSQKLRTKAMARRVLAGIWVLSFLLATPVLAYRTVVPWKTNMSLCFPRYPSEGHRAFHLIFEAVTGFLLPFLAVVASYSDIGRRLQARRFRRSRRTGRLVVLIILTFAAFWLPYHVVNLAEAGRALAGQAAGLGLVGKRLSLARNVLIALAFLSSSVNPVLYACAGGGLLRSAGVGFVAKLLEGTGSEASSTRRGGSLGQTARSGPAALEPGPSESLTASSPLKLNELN

SMILES | IC50 [1] | Ki [2] | IC50 [3] | ED50 [4] | ED50 [5] | Reduction [6] | ED50 [7]
COc1ccc(CCCCCCCCOc2ccc(C[S+]([O-])Cc3cccc(C(=O)O)c3)nc2/C=C/C(=O)O)cc1 (centres undefined) | 2600 nM | 240 nM | 3300 nM | – | – | – | –
O=C(O)/C=C/c1nc(CSCc2cccc(C(=O)O)c2)ccc1OCCCCCCCCc1ccccc1 | 500 nM | 15.4 nM | 320 nM | – | – | – | –
COc1ccc(CCCCOc2ccc(CSCc3cccc(C(=O)O)c3)nc2/C=C/C(=O)O)cc1 | 770 nM | 9.2 nM | 770 nM | – | – | – | –
COc1ccc(CCCCCCCCOc2ccc(C[S+]([O-])Cc3ccc(C(=O)O)cc3)nc2/C=C/C(=O)O)cc1 (centres undefined) | – | 161 nM | 7000 nM | – | – | – | –
COc1ccc(CCCCOc2ccc(CSCc3cccc(C(=O)O)c3)nc2CCC(=O)O)cc1 | 3800 nM | 28 nM | 1900 nM | – | – | – | –
COc1ccc(CCCCCCCCOc2ccc(CSc3cccc(C(=O)O)c3)nc2/C=C/C(=O)O)cc1 | 1000 nM | – | 550 nM | – | – | – | –
O=C(O)/C=C/c1nc(CSCc2cccc(C(=O)O)c2)ccc1OCCCCc1ccccc1 | 1700 nM | 4.8 nM | 500 nM | – | – | – | –
COc1ccc(CCCCCCCCOc2ccc(CSCc3ccc(C(=O)O)cc3)nc2/C=C/C(=O)O)cc1 | 426 nM | 5.7 nM | 175 nM | – | – | – | –
COc1ccc(CCCCCCCCOc2ccc(CS(=O)(=O)Cc3cccc(C(=O)O)c3)nc2/C=C/C(=O)O)cc1 | 1000 nM | 53 nM | 920 nM | – | – | – | –
COc1ccc(CCCCCCCCOc2ccc(CSCc3cccc(C(=O)O)c3)nc2CCC(=O)O)cc1 | 190 nM | 8 nM | 240 nM | – | – | – | –
COc1ccc(CCCCCCCCOc2ccc(C[S+]([O-])c3cccc(C(=O)O)c3)nc2/C=C/C(=O)O)cc1 (centres undefined) | 3200 nM | 167 nM | 3900 nM | – | – | – | –
CCCc1c(OCCCOc2ccc(C(=O)NC)c(OC)c2CC2CC2)ccc2c1O[C@H](CCC(=O)O)CC2 | – | 1.3 nM | – | – | – | – | –
COc1ccc(CCCCCCCCOc2ccc(CSCc3ccccc3C(=O)O)nc2/C=C/C(=O)O)cc1 | – | 112 nM | 710 nM | – | – | – | –
COc1ccc(CCCCCCCCOc2ccc(CSCc3cccc(C(=O)O)c3)nc2/C=C/C(=O)O)cc1 | – | – | 131 nM | 0.39 mg | 7.1 mg/kg | 92% | 0.58 mg
